Results published in patent US8846694B2, “Pyrrolidone derivatives for use as MetAP-2 inhibitors” (Merck Patent GmbH, priority 2008, dated 2014).
Where a name gives a salt, the structure may show the parent alone.

biological target: MetAP-2 (Homo sapiens, UniProt P50579); test: MetAP-2 activity measurement (coupled enzymatic reactions, substrate Met-Arg-Ser, photometric at 450 nm); type: biochemical; conditions: read-out: IC50 enzyme (Inhibition of MetAP-2)
Protocol: MetAP-2 Activity Measurement
The MetAP-2 activity is determined by coupling enzymatic reactions. The tripeptide Met-Arg-Ser (MAS) is employed as substrate. The methionine liberated is firstly converted into Metox and H2O2 by L-aminooxidase (AAO). In the second step, the peroxidase (POD) with the aid of the H2O2 catalyses the oxidation of the leukodye dianisidine to dianisidineox, the increase of which is detected photometrically at 450 nm.
MetAP-2 activity can be recorded continuously as kinetics. The reaction scheme illustrates that one mol of dianisidineox is formed per mol of methionene. The MetAP-2 enzyme activity can therefore be calculated directly as Δ absorption per time unit. […] of the MetAP-2 activity (mol of Met/time unit) is possible with the aid of the dianisidineox extinction coefficient.
The change in extinction per time unit is depicted graphically and a slope calculation is carried out in the visually linear region of the reaction.

Chain of MetAP-2 (P50579 whole entry, species assumed): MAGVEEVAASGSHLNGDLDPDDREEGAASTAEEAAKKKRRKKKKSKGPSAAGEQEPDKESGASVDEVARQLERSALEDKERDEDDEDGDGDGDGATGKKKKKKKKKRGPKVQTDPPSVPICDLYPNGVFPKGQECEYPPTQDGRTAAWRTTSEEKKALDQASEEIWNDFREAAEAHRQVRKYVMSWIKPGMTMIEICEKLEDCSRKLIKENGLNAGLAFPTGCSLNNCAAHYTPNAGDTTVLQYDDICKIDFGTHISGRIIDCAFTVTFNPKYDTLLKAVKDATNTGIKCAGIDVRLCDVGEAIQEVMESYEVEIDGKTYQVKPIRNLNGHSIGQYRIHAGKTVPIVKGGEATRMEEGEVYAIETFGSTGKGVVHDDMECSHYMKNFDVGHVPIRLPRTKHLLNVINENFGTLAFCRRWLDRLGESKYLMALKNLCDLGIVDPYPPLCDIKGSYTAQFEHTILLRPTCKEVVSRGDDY

Structure (SMILES)	IC50
c1cc(OC[C@H]2CCCN2c2ncnc3[nH]cnc23)c2nccc(CN3CCOCC3)c2c1 [A56, 4-Morpholin-4-ylmethyl-8-[(R)-1-(9H-purin-6-yl)-pyrrolidin-2-ylmethoxy]quinoline]	1 to 10 µM
O=c1c2ccccc2ccn1C[C@H]1CCCN1c1ncnc2[nH]cnc12 [A59, 2-[(R)-1-(9H-Purin-6-yl)pyrrolidin-2-ylmethyl]-2H-isoquinolin-1-one]	> 10 µM
c1ccc2c(OC[C@H]3CCCN3c3ncnc4[nH]cnc34)c(CN3CCCCC3)ccc2c1 [A61, 6-[(R)-2-(2-Piperidin-1-ylmethylnaphthalen-1-yloxymethyl)pyrroiidin-1-yl]-9H-purine]	> 10 µM
c1ccc(-c2ccccc2OC[C@H]2CCCN2c2ncnc3[nH]cnc23)cc1 [A62, 6-[(R)-2-(Biphenyl-2-yloxymethyl)pyrrolidin-1-yl]-9H-purine]	1 to 10 µM
c1ccc(-c2cccc(OC[C@H]3CCCN3c3ncnc4[nH]cnc34)c2)cc1 [A63, 6-[(R)-2-(Biphenyl-3-yloxymethyl)pyrrolidin-1-yl]-9H-purine]	1 to 10 µM
c1ccc(-c2ccc(OC[C@H]3CCCN3c3ncnc4[nH]cnc34)cc2)cc1 [A64, 6-[(R)-2-(Biphenyl-4-yloxymethyl)pyrrolidin-1-yl]-9H-purine]	> 10 µM
CC(O)CNC(=O)c1cc(OC[C@H]2CCCN2c2ncnc3[nH]cnc23)c2ccccc2n1 (stereo partly drawn) [A68, N-(2-Hydroxypropyl)-4-[(R)-1-(9H-purin-6-yl)-pyrrolidin-2-ylmethoxy]quinoline-2-carboxamide hydrochloride]	0.01 to 1 µM
O=C(NC1CCCC1)c1cc(OC[C@H]2CCCN2c2ncnc3[nH]cnc23)c2ccccc2n1 [A69, N-Cyclopentyl-4-[(R)-1-(9H-purin-6-yl)-pyrrolidin-2-ylmethoxy]quinoline-2-carboxamide]	1 to 10 µM
CC1(C)Cc2cccc(OC[C@H]3CCCN3c3ncnc4[nH]cnc34)c2O1 [A72, 6-[(R)-2-(2,2-Dimethyl-2,3-dihydrobenzofuran-7-yloxymethyl)pyrro!idin-1-yl]-9H-purine]	1 to 10 µM
c1cc(OC[C@H]2CCCN2c2ncnc3[nH]cnc23)c2ncoc2c1 [A73, 6-[(R)-2-(Benzoxazol-4-yloxymethyl)pyrrolidin-1-yl]-9H-purine]	1 to 10 µM
CCOC(=O)/C=C/c1ccccc1OC[C@H]1CCCN1c1ncnc2[nH]cnc12 [A74, Ethyl (E)-3-{2-[(R)-1-(9H-purin-6-yl)pyrrolidin-2-ylmethoxy]phenyl}acrylate]	0.01 to 1 µM
Cc1cc2c(OC[C@H]3CCCN3c3ncnc4[nH]cnc34)cccc2n1C(=O)C(F)(F)F [A75, 2,2,2-Trifluoro-1-{2-methyl-4-[(R)-1-(9H-purin-6-yl)pyrrolidin-2-ylmethoxy]indol-1-yl}ethanone]	1 to 10 µM
O=C(O)/C=C/c1ccccc1OC[C@H]1CCCN1c1ncnc2[nH]cnc12 [A76, (E)-3-{2-[(R)-1-(9H-Purin-6-yl)pyrrolidin-2-yl-methoxy]phenyl}acrylic acid]	> 10 µM
Fc1ccc(-c2ncc(OC[C@H]3CCCN3c3ncnc4[nH]cnc34)cn2)cc1 [A77, 6-{(R)-2-[2-(4-Fluorophenyl)pyrimidin-5-yl-oxymethyl]pyrrolidin-1-yl}-9H-purine]	1 to 10 µM
CNC(=O)/C=C/c1ccccc1OC[C@H]1CCCN1c1ncnc2[nH]cnc12 [A78, (E)-N-Methyl-3-{2-[(R)-1-(9H-purin-6-yl)-pyrrolidin-2-ylmethoxy]phenyl}acrylamide]	1 to 10 µM
O=C(/C=C/c1ccccc1OC[C@H]1CCCN1c1ncnc2[nH]cnc12)NCCCO [A79, (E)-N-(3-Hydroxypropyl)-3-{2-[(R)-1-(9H-purin-6-yl)pyrrolidin-2-ylmethoxy]phenyl}acrylamide]	0.01 to 1 µM
O=C(NC1CCC1)c1cc(OC[C@H]2CCCN2c2ncnc3[nH]cnc23)c2ccccc2n1 [A80, N-Cyclobutyl-4-[(R)-1-(9H-purin-6-yl)pyrrolidin-2-ylmethoxy]quinoline-2-carboxamide]	0.01 to 1 µM
CCCCCNC(=O)c1cc(OC[C@H]2CCCN2c2ncnc3[nH]cnc23)c2ccccc2n1 [A81, N-Pentyl-4-[(R)-1-(9H-purin-6-yl)pyrrolidin-2-yl-methoxy]quinoline-2-carboxamide]	0.01 to 1 µM
Cn1ncc(Cl)c1/C=C1/CCc2c(OC[C@H]3CCCN3c3ncnc4[nH]cnc34)cccc2C1=O [A82, 2-[1-(4-Chloro-2-methyl-2H-pyrazol-3-yl)meth-(Z)-ylidene]-5-[(R)-1-(9H-purin-6-yl)pyrrolidin-2-ylmethoxy]-3,4-dihydro-2H-naphthalen-1-one]	0.01 to 1 µM
O=C1/C(=C\c2cc[nH]n2)CCc2c(OC[C@H]3CCCN3c3ncnc4[nH]cnc34)cccc21 [A83, 5-[(R)-1-(9H-Purin-6-yl)pyrrolidin-2-ylmethoxy]-2-[1-(1H-pyrazol-3-yl)meth-(Z)-yildene]-3,4-dihydro-2H-naphthaien-1-one]	0.01 to 1 µM
O=C(NCCO)c1cc(OC[C@H]2CCCN2c2ncnc3[nH]cnc23)c2ccccc2n1 [A84, N-(2-Hydroxyethyl)-4-[(R)-1-(9H-purin-6-yl)-pyrrolidin-2-ylmethoxy]quinoline-2-carboxamide]	0.01 to 1 µM
O=C(NCCCO)c1cc(OC[C@H]2CCCN2c2ncnc3[nH]cnc23)c2ccccc2n1 [A85, N-(3-Hydroxypropyl)-4-[(R)-1-(9H-purin-6-yl)-pyrrolidin-2-ylmethoxy]quinoline-2-carboxamide]	0.01 to 1 µM
c1cc(OC[C@H]2CCCN2c2ncnc3[nH]cnc23)c2cccnc2c1 [A86, 5-[(R)-1-(9H-Purin-6-yl)pyrrolidin-2-yl-methoxy]quinoline]	0.01 to 1 µM
c1cc(OC[C@H]2CCCN2c2ncnc3[nH]cnc23)c2cnccc2c1 [A87, 8-[(R)-1-(9H-Purin-6-yl)pyrrolidin-2-yl-methoxy]isoquinoline]	0.01 to 1 µM
O=C(NCC1CC(O)C1)c1cc(OC[C@H]2CCCN2c2ncnc3[nH]cnc23)c2ccccc2n1 (stereo partly drawn) [A88, N-(3-Hydroxycyclobutylmethyl)-4-[(R)-1-(9H-purin-6-yl)pyrrolidin-2-ylmethoxy]quinoline-2-carboxamide]	0.01 to 1 µM
Cc1cc2c(OC[C@H]3CCCN3c3ncnc4[nH]cnc34)cccc2cn1 [A89, 3-Methyl-5-[(R)-1-(9H-purin-6-yl)pyrrolidin-2-yl-methoxy]isoquinoline]	0.01 to 1 µM
CC(=O)N(CCN1CCOCC1)Cc1ccc(OC[C@H]2CCCN2c2ncnc3[nH]cnc23)c2ccccc12 [A92, N-(2-Morpholin-4-ylethyl)-N-{4-[(R)-1-(9H-purin-6-yl)pyrrolidin-2-ylmethoxy]naphthalen-1-yl-methyl}acetamide]	0.01 to 1 µM
c1ccc2c(OC[C@H]3CCCN3c3ncnc4[nH]cnc34)ccnc2c1 [A93, 4-[(R)-1-(9H-Purin-6-yl)pyrrolidin-2-yl-methoxy]quinoline]	0.01 to 1 µM

Results, then the molecule that gave them:

IC50	Structure (SMILES)
0.01 to 1 µM	CCNC(=O)c1cc(OC[C@H]2CCCN2c2ncnc3[nH]cnc23)c2ccccc2n1 [A50, N-Ethyl-4-[(R)-1-(9H-purin-6-yl)pyrrolidin-2-yl-methoxy]quinoline-2-carboxamide formate]
0.01 to 1 µM	O=C1CCCc2c(OC[C@H]3CCCN3c3ncnc4[nH]cnc34)cccc21 [A51]
0.01 to 1 µM	O=C(O)/C=C1/CCc2c(OC[C@H]3CCCN3c3ncnc4[nH]cnc34)cccc2C1=O [A53, [1-Oxo-5-[(R)-1-(9H-purin-6-yl)pyrrolidin-2-yl-methoxy]-3,4-dihydro-1H-naphthalen-(2Z)-ylidene]acetic acid]
0.01 to 1 µM	c1cc2c(c(OC[C@H]3CCCN3c3ncnc4[nH]cnc34)c1)CCCC2 [A55, 6-[(R)-2-(5,6,7,8-Tetrahydronaphthalen-1-yl-oxymethyl)pyrrolidin-1-yl]-9H-purine]
0.01 to 1 µM	Clc1ncc(OC[C@H]2CCCN2c2ncnc3[nH]cnc23)c2ccccc12 [A57, 1 -Chloro-4-[(R)-1-(9H-purin-6-yl)pyrrolidin-2-yl-methoxy]isoquinoline]
0.01 to 1 µM	COCCOc1cccc2c(OC[C@H]3CCCN3c3ncnc4[nH]cnc34)cccc12 [A58, 6-{(R)-2-[5-(2-Methoxyethoxy)naphthalen-1-yl-oxymethyl]pyrrolidin-1-yl}-9H-purine]
0.01 to 1 µM	c1ccc2c(OC[C@H]3CCCN3c3ncnc4[nH]cnc34)ccc(CNCCN3CCOCC3)c2c1 [A60, (2-Morpholin-4-ylethyl)-{4-[(R)-1-(9H-purin-6-yl)-pyrrolidin-2-ylmethoxy]naphthalen-1-yl-methyl}amine]
0.01 to 1 µM	COC(=O)c1cccc(-c2ncc(OC[C@H]3CCCN3c3ncnc4[nH]cnc34)cn2)c1 [A65, Methyl 3-{5-[(R)-1-(9H-purin-6-yl)pyrrolidin-2-yl-methoxy]pyrimidin-2-yl}benzoate]
0.01 to 1 µM	O=C(NCCN1CCOCC1)c1cccc(-c2ncc(OC[C@H]3CCCN3c3ncnc4[nH]cnc34)cn2)c1 [A66, N-(2-Morpholin-4-ylethyl)-3-{5-[(R)-1-(9H-purin-6-yl)pyrrolidin-2-ylmethoxy]pyrimidin-2-yl}-benzamide]
0.01 to 1 µM	CNC(=O)/C=C1/CCc2c(OC[C@H]3CCCN3c3ncnc4[nH]cnc34)cccc2C1=O [A67, N-Methyl-2-[1-oxo-5-[(R)-1-(9H-purin-6-yl)-pyrrolidin-2-ylmethoxy]-3,4-dihydro-1H-naphthalen-(2Z)-ylidene]acetamide]
0.01 to 1 µM	CCCCNC(=O)c1cc(OC[C@H]2CCCN2c2ncnc3[nH]cnc23)c2ccccc2n1 [A70, N-Butyl-4-[(R)-1-(9H-purin-6-yl)pyrrolidin-2-yl-methoxy]quinoline-2-carboxamide]
0.01 to 1 µM	CCCNC(=O)c1cc(OC[C@H]2CCCN2c2ncnc3[nH]cnc23)c2ccccc2n1 [A71, N-Propyl-4-[(R)-1-(9H-purin-6-yl)pyrrolidin-2-yl-methoxy]quinoline-2-carboxamide]
